From patent US6806286B2, “Pyrrolecarboxamides and pyrrolethioamides as fungicides” (Syngenta Crop Protection, Inc., priority 2000, dated 2004)

Legend:
Etysiphe graminis = experiment: Action against Etysiphe graminis/barley (powdery mildew on barley); type: in vivo; conditions: barley plants cv. Express, spray 0.02% active ingredient, inoculated one day after application, assessed after 6 days incubation
Procedure: Action Against Etysiphe graminis/barley (Powdery Mildew on Barley)
1 week old barley plants cv. […] One day after application barley plants are inoculated by shaking powdery mildew infected plants above the test plants. After an incubation period of 6 days at 20° C./18° C. (day/night) and 60% r. h. in a greenhouse the disease incidence is assessed.

Botryts cinerea = experiment: Action against Botryts cinerea/tomato (Botrytis on tomatoes); type: in vivo; conditions: tomato plants cv. Roter Gnom, spray 0.002% active ingredient, inoculated two days after application, assessed after 4 days incubation
Procedure: Action Against Botryts cinerea/tomato (Botrytis on Tomatoes)
4 week old tomato plants cv. […] Two days after application tomato plants are inoculated by spraying a spore suspension (1×10^5 conidia/ml) on the test plants. After an incubation period of 4 days at 20° C. and 95% r. h. in a growth chamber the disease incidence is assessed.

Botryis cinerea = experiment: Action against Botryis cinerea/apple (Botrytis on apple fruits); type: in vivo, B. cinerea; conditions: apple fruit cv. Golden Delicious, 30 μl droplets 0.002% active ingredient in drilled holes, inoculated two hours after application, assessed after 7 days
Procedure: Action Against Botryis cinerea/apple (Botrytis on Apple Fruits)
In an apple fruit cv. […] Two hours after application 50 μl of a spore suspension of B. cinerea (4×10^5 conidia/ml) are pipetted on the application sites. After an incubation period of 7 days at 22° C. in a growth chamber the disease incidence is assessed.

Puenophora teres = experiment: Action against Puenophora teres/barley (net blotch on barley); type: in vivo; conditions: barley plants cv. Express, spray 0.002% active ingredient, inoculated two days after application, assessed 4 days after inoculation
Procedure: Action Against Puenophora teres/barley (Net Blotch on Barley)
1 week old barley plants cv. […] Two days after application barley plants are inoculated by spraying a spore suspension (3×10^4 conidia/ml) on the test plants. After an incubation period of 2 days at 20° C. and 95% r. h. plants are kept for 2 days at 20° C. and 60% r.h. in a greenhouse. The disease incidence is assessed 4 days after inoculation.

Septoria nodorum = experiment: Action against Septoria nodorum/wheat (Septoria leaf spot on wheat); type: in vivo; conditions: wheat plants cv. Arina, spray 0.02% active ingredient, inoculated one day after application, assessed 11 days after inoculation
Procedure: Action Against Septoria nodorum/wheat (Septoria Leaf Spot on Wheat)
1 week old wheat plants cv. […] One day after application wheat plants are inoculated by spraying a spore suspension (5×10^5 conidia/ml) on the test plants. After an incubation period of 1 day at 20° C. and 95% r. h. plants are kept for 10 days at 20° C. and 60% r.h. in a greenhouse. The disease incidence is assessed 11 days after inoculation.

Podosphaera leucotricha = experiment: Action against Podosphaera leucotricha/apple (powdery mildew on apple); type: in vivo; conditions: apple seedlings cv. McIntosh, spray 0.002% active ingredient, inoculated one day after application, assessed after 12 days incubation
Procedure: Action Against Podosphaera leucotricha/apple (Powdery Mildew on Apple)
5 week old apple seedlings cv. […] One day after application apple plants are inoculated by shaking plants infected with apple powdery mildew above the test plants. After an incubation period of 12 days at 22° C. and 60% r. h. under a light regime of 14/10 h (light/dark) the disease incidence is assessed.

Venturia Inaequalis = experiment: Action against Venturia inaequalis/apple (scab on apple); type: in vivo; conditions: apple seedlings cv. McIntosh, spray 0.02% active ingredient, inoculated one day after application, assessed after 4+4+4 days incubation
Procedure: Action Against Venturia Inaequalis/apple (Scab on Apple)
4 week old apple seedlings cv. […] One day after application apple plants are inoculated by spraying a spore suspension (4×10^5 conidia/ml) on the test plants. After an incubation period of 4 days at 21° C. and 95% r. h. the plants are placed for 4 days at 21° C. and 60% r. h. in a greenhouse. After another 4 day incubation period at 21° C. and 95% r. h. the disease incidence is assessed.

Boftis cinerea = experiment: Action against Boftis cinerea/grape (Botrytis on grapes); type: in vivo; conditions: grape seedlings cv. Gutedel, spray 0.002% active ingredient, inoculated two days after application, assessed after 4 days incubation
Procedure: Action Against Boftis cinerea/grape (Botrytis on Grapes)
5 week old grape seedlings cv. […] Two days after application grape plants are inoculated by spraying a spore suspension (1×10^6 conidia/ml) on the test plants. After an incubation period of 4 days at 21° C. and 95% r. h. in a greenhouse the disease incidence is assessed.

Measured: efficacy (disease incidence)

Cn1cc(C(=O)Nc2ccsc2-c2ccc(Cl)cc2)c(C(F)(F)C(F)(F)F)c1 [Compound 2.190]
strong efficacy: all assays above

CC1CC(C)(C)c2cccc(NC(=O)c3cn(C)cc3C(F)(F)C(F)(F)F)c21 (racemic) [Compound 10.5]
strong efficacy: all assays above

CCc1cn(C)cc1C(=O)Nc1ccccc1-c1ccc(Cl)cc1 [Compound 1.260]
strong efficacy: all assays above

Cc1cn(C)cc1C(=O)Nc1ccccc1C1CCCCC1 [Compound 1.9]
strong efficacy: all assays above

Cc1cn(C)cc1C(=O)Nc1cnccc1-c1ccc(Cl)cc1 [Compound 6.10]
strong efficacy: all assays above

Cc1cn(C)cc1C(=O)Nc1ccccc1-c1ccncc1F [Compound 1.46]
strong efficacy: all assays above

Cn1cc(C(=O)Nc2ccsc2-c2ccc(F)cc2)c(C(F)(F)C(F)(F)F)c1 [Compound 2.192]
strong efficacy: all assays above

CC(C)c1cn(C)cc1C(=O)Nc1ccccc1-c1ccc(F)cc1 [Compound 1.269]
strong efficacy: all assays above

Cn1cc(C(=O)Nc2ccccc2C2CCCCC2)c(C2CC2)c1 [Compound 1.206]
strong efficacy: all assays above

Cn1cc(C(=O)Nc2ccccc2C2CCCCC2)c(C(F)(F)C(F)(F)F)c1 [Compound 1.187]
strong efficacy: all assays above

Cn1cc(C(=O)Nc2ccccc2-c2ccc(Cl)cc2)c(C(F)F)c1 [Compound 1.144]
strong efficacy: all assays above

Cc1cn(C)cc1C(=O)Nc1ccccc1-c1ccc(Cl)cc1 [Compound 1.23]
strong efficacy: all assays above

CCn1cc(C(=O)Nc2ccccc2-c2ccc(Cl)cc2)c(C(C)C)c1 [Compound 1.271]
strong efficacy: all assays above

Cn1cc(C(=O)Nc2cnccc2-c2ccc(Cl)cc2)c(C2CC2)c1 [Compound 6.49]
strong efficacy: all assays above

Cc1cn(C)cc1C(=O)Nc1snnc1-c1ccc(F)cc1 [Compound 4.12]
strong efficacy: all assays above
